Laboratory results: ChEMBL document CHEMBL1201862, “PubChem BioAssay data set” (2004)
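Protocol summary: plate cells (96-well), add compound at 5 concentrations, incubate 48 h, interpolate endpoints linearly. Here, GI50 denotes the concentration required for 50% inhibition of growth.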 Activity calls are given as the source filed them. Cut-off read from the data, not from the text of the source: active = GI50 up to about 1.1 µM and inactive = higher.

Columns and labels:
Assay in all cases: growth of human tumour cells (NCI), 48 h
[1] = test system: A549
[2] = test system: UACC-62
[3] = test system: RPMI-8226
[4] = test system: SF-268
[5] = test system: OVCAR-3
[6] = test system: OVCAR-8
[7] = test system: Hs-578T
[8] = test system: 786-0
[9] = test system: SN12C
[10] = test system: OVCAR-4
[11] = test system: HOP-92
[12] = test system: HT-29
[13] = test system: OVCAR-5
[14] = test system: UACC-257
[15] = test system: K562
[16] = test system: T47D
[17] = test system: MCF7
[18] = test system: NCI-H460
[19] = test system: SF-539
[20] = test system: IGROV-1

Measured: GI50

CC(CN1CC(=O)NC(=O)C1)N1CC(=O)NC(=O)C1 (centres undefined) [RAZOXANE]
inactive: [1] 32.9 µM | [2] 340 µM | [3] 254 µM | [4] 299 µM | [5] 356 µM | [6] 460 µM | [7] 72.3 µM | [8] 98.9 µM | [9] 112 µM | [10] 283 µM | [11] 211 µM | [12] 119 µM | [13] 343 µM | [14] 535 µM | [15] 188 µM | [16] 231 µM | [17] 33.2 µM | [18] 11.1 µM | [19] 332 µM | [20] 289 µM

CCOC(=O)C(C)(C(=O)OCC)/C(Cl)=C\Cl
inactive: [1] 33.7 µM | [2] > 100 µM | [3] > 100 µM | [4] > 100 µM | [5] > 100 µM | [6] > 100 µM | [7] > 100 µM | [8] > 100 µM | [9] > 100 µM | [10] > 100 µM | [11] > 100 µM | [12] > 100 µM | [13] > 100 µM | [14] > 100 µM | [15] > 100 µM | [16] > 100 µM | [17] 84.7 µM | [18] 22.6 µM | [19] > 100 µM | [20] > 100 µM

C[C@H]1C2Cc3cc(N)ccc3[C@@]1(C)CCN2CCc1ccccc1
inactive: [1] 42.7 µM | [2] 45.5 µM | [3] 33.6 µM | [4] 76 µM | [5] 15.9 µM | [6] 62.5 µM | [7] 96.6 µM | [8] 49.9 µM | [9] > 100 µM | [10] 48.2 µM | [11] 21.4 µM | [12] 6.49 µM | [13] 74.6 µM | [14] 30.7 µM | [15] 28.8 µM | [16] 31.6 µM | [17] 25.2 µM | [18] 33.1 µM | [19] 45.2 µM | [20] 41.9 µM

CCOC(=O)C1=CN(Cc2ccccc2)C2ON=C(c3ccc(Cl)cc3)C2C1 (centres undefined)
inactive: [1] 17.6 µM | [2] 17.1 µM | [3] 22 µM | [4] > 42.1 µM | [5] 39.3 µM | [6] > 54 µM | [7] 11.6 µM | [8] 54.7 µM | [9] > 52 µM | [10] 42 µM | [11] 18.8 µM | [12] 48.6 µM | [13] 34.4 µM | [14] 33.3 µM | [15] 5 µM | [16] 5.61 µM | [17] 23.6 µM | [18] 40.5 µM | [19] > 55 µM | [20] 29.5 µM

Cc1n[nH]c(=O)n1Nc1ccccc1
inactive: [1] > 100 µM | [2] > 100 µM | [3] > 100 µM | [4] > 100 µM | [5] > 100 µM | [6] > 100 µM | [7] > 100 µM | [8] > 100 µM | [9] > 100 µM | [10] > 100 µM | [11] > 100 µM | [12] > 100 µM | [13] > 100 µM | [14] > 100 µM | [15] > 100 µM | [16] > 100 µM | [17] > 100 µM | [18] > 100 µM | [19] > 100 µM | [20] > 100 µM

C=C1CCCCCCCCCCC1[S+]([O-])c1ccccc1 (centres undefined)
inactive: [1] 33.3 µM | [2] 45.4 µM | [3] 20.8 µM | [4] 27.7 µM | [5] 34.1 µM | [7] 44.5 µM | [8] 18.8 µM | [9] 23.2 µM | [10] 54.5 µM | [11] > 100 µM | [12] 40.3 µM | [13] 49.8 µM | [14] 47.1 µM | [15] 33.8 µM | [16] > 100 µM | [17] 30.1 µM | [18] 58.9 µM | [19] 21 µM | [20] 16 µM
